“Also recorded” adds a separate entry of the source. Where two headings read alike, the source gives them in different places.
Tests used:
[1] = biological target: T1, rASIC1A channel (Rattus norvegicus, UniProt P55926); assay: Proton-activated rASIC1A current in Xenopus oocytes (voltage clamp and outside-out patch); assay type: cell-based
T1 construct: cDNA isolated from rat brain codes for a protein of 526 amino acids; expressed in transfected cells; host or cells: Xenopus laevis oocytes injected with cRNA
T1 sequence (P55926 1-526): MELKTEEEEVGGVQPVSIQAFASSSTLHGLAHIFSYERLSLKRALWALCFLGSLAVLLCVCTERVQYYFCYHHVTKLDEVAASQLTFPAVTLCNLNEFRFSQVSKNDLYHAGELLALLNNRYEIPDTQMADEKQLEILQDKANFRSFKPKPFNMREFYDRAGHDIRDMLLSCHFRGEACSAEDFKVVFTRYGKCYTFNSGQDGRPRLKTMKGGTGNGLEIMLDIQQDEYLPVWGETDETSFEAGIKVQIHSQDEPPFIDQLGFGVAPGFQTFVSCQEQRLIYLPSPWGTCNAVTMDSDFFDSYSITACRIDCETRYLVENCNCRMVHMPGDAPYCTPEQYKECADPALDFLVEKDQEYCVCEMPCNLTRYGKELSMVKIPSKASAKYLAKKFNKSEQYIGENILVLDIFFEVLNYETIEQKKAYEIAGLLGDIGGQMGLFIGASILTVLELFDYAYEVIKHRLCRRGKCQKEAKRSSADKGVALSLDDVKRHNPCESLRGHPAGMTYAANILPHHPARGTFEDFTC
Description: 0.25 ng of cRNA was injected into the Xenopus laevis oocytes and the recording microelectrodes for the imposed voltage and for the patch-clamp were installed two days after the injection. The bath solutions for the outside-out patch recordings and the pipettes for the outside-out patch and total cells recordings contained: 140 mM KCl (or NMDG), 2 mM MgCl2, 5 mM EGTA, 10 mM Hepes, pH 7.4 (with KOH). The pipettes for the outside-out patch recordings and the bath solutions for the outside-out patch and total cells recordings contained: 140 mM NaCl (or LiCl or NMDGCl), 2 mM MgCl2, 1.8 mM CaCl2, 10 mM Hepes, pH 7.4 (adjusted with HCl, NaOH, LiOH or TMAOH). The intracellular acidification of the oocytes was implemented by injecting […] of the internal solution at pH 2 or by perfusion and withdrawal of a bath medium containing 20 mM NH4 Cl. […] The data were sampled at 2 kHz and filtered at 500 Hz for the analysis (Logiciel Biopatch).

[2] = system: proton-activated cationic channels of sensory neurons; conditions: refs [18], [19]; cited from earlier work
[3] = biological target: T2, hASIC3 (Homo sapiens, UniProt Q9UHC3); assay: H+-gated hASIC3 whole-cell current in transfected COS cells; assay type: cell-based
T2 construct: expressed in transfected cells; host or cells: COS cells (DEAE-Dextran, hASIC3-PCI with CD8 marker)
T2 sequence (Q9UHC3 1-531): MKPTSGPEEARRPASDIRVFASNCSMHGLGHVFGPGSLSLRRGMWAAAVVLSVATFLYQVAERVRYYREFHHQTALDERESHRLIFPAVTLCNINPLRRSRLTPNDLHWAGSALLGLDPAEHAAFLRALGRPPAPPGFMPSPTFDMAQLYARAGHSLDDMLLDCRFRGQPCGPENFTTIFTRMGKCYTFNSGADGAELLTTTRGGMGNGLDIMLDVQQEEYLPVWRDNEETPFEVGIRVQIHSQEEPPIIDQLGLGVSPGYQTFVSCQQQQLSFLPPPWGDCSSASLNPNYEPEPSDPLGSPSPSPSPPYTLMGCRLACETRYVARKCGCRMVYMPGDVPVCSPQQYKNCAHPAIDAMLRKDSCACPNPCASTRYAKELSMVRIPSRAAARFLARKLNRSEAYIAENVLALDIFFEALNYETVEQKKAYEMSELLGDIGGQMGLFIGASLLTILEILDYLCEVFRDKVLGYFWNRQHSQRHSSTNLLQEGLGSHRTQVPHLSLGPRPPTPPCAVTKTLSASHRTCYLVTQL
Text: (§1) The vector containing the hASIC3 coding sequence was linearized with NotI and blunt ended with T4 DNA polymerase. After inactivation of the T4 DNA polymerase, the hASIC3 coding sequence was excised with EcoRI and subsequently subcloned into the EcoRI/SalI (blunt) digested PCI expression vector (Promega). COS cells, at a density of 20.000 cells per 35 mm diameter petri dish, were transfected with a mix of CD8 and hASIC3-PCI (1:5) using the DEAE-Dextran method. Cells were used for electrophysiological measurements one to three days after transfection. Successfully transfected cells were recognised by their ability to fix CD8-antibody-coated beads. Ion currents were recorded using either the whole cell or outside-out patch-clamp technique. The pipette solution contained (in mM): KCl 120, NaCl 30, MgCl2 2, EGTA 5, HEPES 10 (pH 7.2). The bath solution contained in mM: NaCl 140, KCl 5, MgCl2 2, CaCl2 2, HEPES 10 (pH 7.3). Changes in extracellular pH were induced by opening one out of six outlets of a microperfusion system in front of the cell or patch. Test solutions having a pH of less then 6 were buffered with 10 mM MES rather than HEPES but were identical to the control solution in all other respects. Experiments were carried out at room temperature (20-24° C.).

[4] = biological target: T2, hASIC3; assay: hASIC3 single channel currents in outside-out patches from transfected COS cells; assay type: cell-based; conditions: 100 μM, outside-out patch, -60 mV, resting pH 7.3
Text: as §1

[5] = system: perception of acid taste; conditions: ref [2]; cited from earlier work
[6] = H+-activated current, pH change from pH 7.4 to pH 6, -70 mV, oocytes, outside-out patch at 0 mV, read-out: Kd, reversible block of the rASIC1A channel

Compound: CCN(c1nc(N)c(C(=O)NC(=N)N)nc1Cl)C(C)C [EIPA, ethylisopropylamiloride]
- Kd [1, 6]: 10 µM
- Effect on the inflowing current activated by H+ in sensory neurons [2]: inhibited

Compound: N=C(N)NC(=O)c1nc(Cl)c(N)nc1N [amiloride]
- Kd [1]: 10 µM
- IC50 ([3]; cells clamped at -60 mV, currents as fraction of mean current in absence of drug, read-out: K0.5, dose-response curve for inhibition of hASIC3 current): 15.9 µM
- Effect on the sustained hASIC3 current ([3]; COS cells): virtually not affected
- Kd ([3]; transient current, COS cells, read-out: KD, inhibition of the transient hASIC3 current): 15.9 µM
- Effect on spontaneous hASIC3 channel activity at pH 7.3 [4]: inhibited; also recorded: disappears
- Effect on the inflowing current activated by H+ in sensory neurons [2]: inhibited
- Effect on perception of acid taste [5]: inhibits the perception of acid taste

Compound: NC(=NCc1ccccc1)NC(=O)c1nc(Cl)c(N)nc1N [benzamil]
- Kd [1, 6]: 10 µM

Compound: Nc1nc(N)c2nc(-c3ccccc3)c(N)nc2n1 [triamterene]
- Effect on the sustained hASIC3 current ([3]; COS cells): virtually not affected
- Effect on the transient hASIC3 current ([3]; transient current, COS cells): inhibited

Source: patent US6287859A, “Identification, functional expression and chromosal localization of a sustained human proton-gated cation channel” (priority 1999, dated 2001)
